Literature values as cited in PMC12805357, “Cooperative ligand binding in a bacterial heme-based oxygen sensor” (The Journal of Biological Chemistry, 2025).

Legend:
[1] = sperm whale myoglobin
[2] = design: method as in earlier work; settings: myoglobins; ref 7 of the supplement (Faulkner et al., 1995)

## sperm whale myoglobin (swMb): sperm whale myoglobin, literature comparison protein
[1]
  n (Hill coefficient), O2 binding: 0.95 ± 0.05
[1]; read-out: Kd, equilibrium oxygen affinity
  Kd: 0.83 to 1.5 µM
[2]
  Midpoint 1 (mV vs SHE): 47 mV vs SHE
